The source of these data is patent publication US8759318B2, “Phosphoramidate derivatives of guanosine nucleoside compounds for treatment of viral infections” (Inhibitex, Inc., priority 2009, dated 2014).

The nature of one data set: in vitro. The conditions noted are these: human.
Data set [1] has as its system HCV replicon (Genotype 1b). Nature of the data set: Luciferase genotype 1b replicon potency assay. The note with it: Hepatitis C virus, GETYPE1B, read-out: IC50 μM, HCV genotype 1b luciferase replicon, Renilla luciferase reporter. A general note: In antiviral work, replicon cells carry a viral genome segment that copies itself.

Molecules are shown by their SMILES. A value given as a limit tells only on which side of the number the result lay.

One may read the IC50 as the concentration that inhibits the measured activity by half. Turning to `COc1nc(N)nc2c1ncn2C1O[C@H](COP(=O)(N[C@H](C(=O)OCC(C)(C)C)C(C)C)Oc2cccc3cccnc23)[C@@H](O)[C@@]1(C)O` (stereo partly drawn) [Example 53, (2S)-neopentyl 2-((((2R,3R,4R)-5-(2-amino-6-methoxy-9H-purin-9-yl)-3,4-dihydroxy-4-methyltetrahydrofuran-2-yl)methoxy)(quinolin-8-yloxy)phosphorylamino)-3-methylbutanoate], the CC50 in the data set “in vitro” was > 100 µM. Moreover, the IC50 in data set [1] turned out to be 0.88 µM.
For `COC(=O)[C@@H](C)c1ccc2cc(OP(=O)(N[C@@H](C)C(=O)OC3CCOCC3)OC[C@H]3OC(n4cnc5c(OC)nc(N)nc54)[C@](C)(O)[C@@H]3O)ccc2c1` (stereo partly drawn) [Example 29, (2S)-methyl 2-(6-((((2R,3R,4R)-5-(2-amino-6-methoxy-9H-purin-9-yl)-3,4-dihydroxy-4-methyltetrahydrofuran-2-yl)methoxy)((S)-1-oxo-1-(tetrahydro-2H-pyran-4-yloxy)propan-2-ylamino)phosphoryloxy)naphthalen-2-yl)propanoate] the same measures were > 100 µM and 0.11 µM.
For `CSc1nc(N)nc2c1ncn2C1O[C@H](COP(=O)(N[C@@H](C)C(=O)OCC(C)(C)C)Oc2cccc3ccccc23)[C@@H](O)[C@@]1(C)O` (stereo partly drawn) [Example 90, (2S)-neopentyl 2-((((2R,3R,4R)-5-(2-amino-6-(methylthio)-9H-purin-9-yl)-3,4-dihydroxy-4-methyltetrahydrofuran-2-yl)methoxy)(naphthalen-1-yloxy)phosphorylamino)propanoate], the CC50 in “in vitro” is 41 µM. For the same compound, the IC50 in data set [1] was 0.033 µM.
Take `COc1nc(N)nc2c1ncn2C1O[C@H](COP(=O)(N[C@@H](C(=O)OCC(C)(C)C)c2ccccc2)Oc2cccc3ccccc23)[C@@H](O)[C@@]1(C)O` (stereo partly drawn) [Example 70, (2R)-neopentyl 2-((((2R,3R,4R)-5-(2-amino-6-methoxy-9H-purin-9-yl)-3,4-dihydroxy-4-methyltetrahydrofuran-2-yl)methoxy)(naphthalen-1-yloxy)phosphorylamino)-2-phenylacetate]: in the data set “in vitro”, the CC50 worked out at 38 µM. For the same compound, in data set [1], the IC50 stood at 0.077 µM.
Take `COc1nc(N)nc2c1ncn2C1O[C@H](COP(=O)(N[C@@H](C)C(=O)OCC(C)(C)C)Oc2cccc3ncccc23)[C@@H](O)[C@@]1(C)O` (stereo partly drawn) [Example 31, (2S)-neopentyl 2-((((2R,3R,4R)-5-(2-amino-6-methoxy-9H-purin-9-yl)-3,4-dihydroxy-4-methyltetrahydrofuran-2-yl)methoxy)(quinolin-5-yloxy)phosphorylamino)propanoate]: the CC50 in “in vitro” was > 100 µM. Moreover, the IC50 in data set [1] is 0.19 µM.
For `COc1nc(N)nc2c1ncn2C1O[C@H](COP(=O)(N[C@@H](C)C(=O)OC2CCOCC2)Oc2cccc3ncccc23)[C@@H](O)[C@@]1(C)O` (stereo partly drawn) [Example 32, (2S)-tetrahydro-2H-pyran-4-yl 2-((((2R,3R,4R)-5-(2-amino-6-methoxy-9H-purin-9-yl)-3,4-dihydroxy-4-methyltetrahydrofuran-2-yl)methoxy)(quinolin-5-yloxy)phosphorylamino)propanoate] the same measures were > 100 µM and 1.2 µM.
In the case of `COc1nc(N)nc2c1ncn2C1O[C@H](COP(=O)(N[C@@H](C)C(=O)OCC(C)(C)C)Oc2ccccc2)[C@@H](O)[C@@]1(C)O` (stereo partly drawn) [Example 35, (2S)-neopentyl 2-((((2R,3R,4R)-5-(2-amino-6-methoxy-9H-purin-9-yl)-3,4-dihydroxy-4-methyltetrahydrofuran-2-yl)methoxy)(phenoxy)phosphorylamino)propanoate], the CC50 in the data set “in vitro” was determined as 38 µM. Further, the IC50 in data set [1] turned out to be 0.049 µM.
Consider `COc1nc(N)nc2c1ncn2C1O[C@H](COP(=O)(N[C@@H](C)C(=O)O[C@@H](C)c2ccccc2)Oc2cccc3ccccc23)[C@@H](O)[C@@]1(C)O` (stereo partly shown) [Example 15], for which the CC50 in the data set “in vitro” amounted to 12 µM. Further, the IC50 in data set [1] came to 0.032 µM.
Take `COc1nc(N)nc2c1ncn2C1O[C@H](COP(=O)(N[C@H](C(=O)OCc2ccccc2)c2ccccc2)Oc2cccc3ccccc23)[C@@H](O)[C@@]1(C)O` (stereo partly shown) [Example 63]: the CC50 in the data set “in vitro” is 50 µM. For the same compound, the IC50 in data set [1] is 0.028 µM.
`CCOc1nc(N)nc2c1ncn2C1O[C@H](COP(=O)(N[C@@H](C)C(=O)OCC(C)(C)C)Oc2cccc3ccccc23)[C@@H](O)[C@@]1(C)O` (stereo partly shown) [Example 76] yielded a CC50 in the data set “in vitro” of 10 µM. Also, the IC50 in data set [1] turned out to be 0.01 µM.
For `CCC(C)[C@H](NP(=O)(OC[C@H]1OC(n2cnc3c(OC)nc(N)nc32)[C@](C)(O)[C@@H]1O)Oc1cccc2ccccc12)C(=O)OCC(C)(C)C` (stereo partly shown) [Example 62] the same measures were 18 µM and 0.86 µM.
In “in vitro”, `C[C@H](NP(=O)(OC[C@H]1OC(n2cnc3c(NCc4ccccc4)nc(N)nc32)[C@](C)(O)[C@@H]1O)Oc1cccc2ccccc12)C(=O)OCC(C)(C)C` (stereo partly shown) [Example 85] returned a CC50 of 15 µM. The IC50 in data set [1] stood at 0.58 µM.
`COc1nc(N)nc2c1ncn2C1O[C@H](COP(=O)(N[C@@H](C)C(=O)OC2CCCC2)Oc2cccc3ccccc23)[C@@H](O)[C@@]1(C)O` (stereo partly drawn) [Example 24, (2S)-cyclopentyl 2-((((2R,3R,4R)-5-(2-amino-6-methoxy-9H-purin-9-yl)-3,4-dihydroxy-4-methyltetrahydrofuran-2-yl)methoxy)(naphthalen-1-yloxy)phosphorylamino)propanoate] displayed a CC50 in the data set “in vitro” of 9 µM. The IC50 in data set [1] was determined as 0.02 µM.
As for `CCOc1nc(N)nc2c1ncn2C1O[C@H](COP(=O)(N[C@@H](C)C(=O)OCc2ccc(F)cc2F)Oc2cccc3ccccc23)[C@@H](O)[C@@]1(C)O` (stereo partly drawn) [Example 74, (2S)-2,4-difluorobenzyl 2-((((2R,3R,4R)-5-(2-amino-6-ethoxy-9H-purin-9-yl)-3,4-dihydroxy-4-methyltetrahydrofuran-2-yl)methoxy)(naphthalen-1-yloxy)phosphorylamino)propanoate], the CC50 in “in vitro” amounted to 17 µM. Besides, the IC50 in data set [1] turned out to be 0.034 µM.
Turning to `COc1nc(N)nc2c1ncn2C1O[C@H](COP(=O)(N[C@@H](C)C(=O)O[C@@H](C)c2ccccc2)Oc2cccc3ccccc23)C[C@@]1(C)O` (stereo partly drawn) [Example 96, (2S)-((S)-1-phenylethyl) 2-((((2S,4R)-5-(2-amino-6-methoxy-9H-purin-9-yl)-4-hydroxy-4-methyltetrahydrofuran-2-yl)methoxy)(naphthalen-1-yloxy)phosphorylamino)propanoate], in “in vitro”, the CC50 stood at 20 µM. In addition, the IC50 in data set [1] was > 10 µM.
In the data set “in vitro”, `COc1nc(N)nc2c1ncn2C1O[C@H](COP(=O)(N[C@H](C(=O)OC2CCCC2)C(C)C)Oc2cccc3ccccc23)[C@@H](O)[C@@]1(C)O` (stereo partly shown) [Example 45] came in with a CC50 of 56 µM. In data set [1], the IC50 was 0.33 µM.
`COc1nc(N)nc2c1ncn2C1O[C@H](COP(=O)(N[C@@H](C(=O)OC2CCCCC2)c2ccccc2)Oc2cccc3ccccc23)[C@@H](O)[C@@]1(C)O` (stereo partly drawn) [Example 71, (2R)-cyclohexyl 2-((((2R,3R,4R)-5-(2-amino-6-methoxy-9H-purin-9-yl)-3,4-dihydroxy-4-methyltetrahydrofuran-2-yl)methoxy)(naphthalen-1-yloxy)phosphorylamino)-2-phenylacetate] had a CC50 in the data set “in vitro” of 26 µM. The IC50 in data set [1] came out at 2.5 µM.
Regarding `COc1nc(N)nc2c1ncn2C1O[C@H](COP(=O)(N[C@H](C(=O)OC2CCC2)C(C)C)Oc2cccc3ccccc23)[C@@H](O)[C@@]1(C)O` (stereo partly drawn) [Example 44, (2S)-cyclobutyl 2-((((2R,3R,4R)-5-(2-amino-6-methoxy-9H-purin-9-yl)-3,4-dihydroxy-4-methyltetrahydrofuran-2-yl)methoxy)(naphthalen-1-yloxy)phosphorylamino)-3-methylbutanoate], in the data set “in vitro”, the CC50 is 64 µM. Moreover, the IC50 in data set [1] was determined as 0.39 µM.
Consider `CSc1nc(N)nc2c1ncn2[C@@H]1O[C@H](COP(=O)(N[C@@H](C)C(=O)OCC(C)(C)C)Oc2ccc3ncccc3c2)[C@@H](O)[C@@]1(C)O` (stereo partly drawn) [Example 91, (2S)-neopentyl 2-((((2R,3R,4R,5R)-5-(2-amino-6-(methylthio)-9H-purin-9-yl)-3,4-dihydroxy-4-methyltetrahydrofuran-2-yl)methoxy)(quinolin-6-yloxy)phosphorylamino)propanoate], for which the CC50 in the data set “in vitro” is > 100 µM. For the same compound, the IC50 in data set [1] was determined as 0.26 µM.
The compound `COc1nc(N)nc2c1ncn2C1O[C@H](COP(=O)(N[C@H](C(=O)OCC(C)(C)C)C(C)C)Oc2cc(C(C)(C)C)cc3ccc(C(C)(C)C)cc23)[C@@H](O)[C@@]1(C)O` (stereo partly shown) [Example 56] gave a CC50 in “in vitro” of 13 µM. The IC50 in data set [1] is 2.1 µM.
The matching figures for `COc1nc(N)nc2c1ncn2C1O[C@H](COP(=O)(N[C@H](C(=O)OCc2ccc(F)cc2F)C(C)C)Oc2cccc3ncccc23)[C@@H](O)[C@@]1(C)O` (stereo partly drawn) [Example 49, (2S)-2,4-difluorobenzyl 2-((((2R,3R,4R)-5-(2-amino-6-methoxy-9H-purin-9-yl)-3,4-dihydroxy-4-methyltetrahydrofuran-2-yl)methoxy)(quinolin-5-yloxy)phosphorylamino)-3-methylbutanoate]: > 100 µM and 0.17 µM.
In turn, `COc1nc(N)nc2c1ncn2C1O[C@H](COP(=O)(N[C@@H](C)C(=O)OCC(C)(C)C)Oc2cccc3ccccc23)C[C@@]1(C)O` (stereo partly drawn) [Example 97, (2S)-neopentyl 2-((((2S,4R)-5-(2-amino-6-methoxy-9H-purin-9-yl)-4-hydroxy-4-methyltetrahydrofuran-2-yl)methoxy)(naphthalen-1-yloxy)phosphorylamino)propanoate] gave a CC50 in the data set “in vitro” of 44 µM. In addition, in data set [1], the IC50 was > 10 µM.
For the compound `COc1nc(N)nc2c1ncn2C1O[C@H](COP(=O)(N[C@H](C(=O)OCC2CC2)C(C)C)Oc2cccc3ccccc23)[C@@H](O)[C@@]1(C)O` (stereo partly drawn) [Example 43, (2S)-cyclopropylmethyl 2-((((2R,3R,4R)-5-(2-amino-6-methoxy-9H-purin-9-yl)-3,4-dihydroxy-4-methyltetrahydrofuran-2-yl)methoxy) (naphthalen-1-yloxy)phosphorylamino)-3-methylbutanoate], the CC50 in the data set “in vitro” came to 6 µM. Moreover, the IC50 in data set [1] stood at 0.18 µM.
